The NIST ThermoML archive (doi:10.1021/acs.jced.7b00344)
Numbers after ± are expanded uncertainties.

Assays:
[1] = Liquid; for vapor or sublimation pressure: Ebulliometric method (Recirculating still); for viscosity / mass density: 101.3 kPa; for viscosity: Capillary tube (Ostwald / Ubbelohde) method; for mass density: Pycnometric method
[2] = xn = mol fraction of the nth substance listed; conditions: 101.3 kPa, Liquid, x1 = 1; for viscosity: Capillary tube (Ostwald / Ubbelohde) method; for mass density: Pycnometric method

CC(=O)C1CC1 [1-cyclopropyl ethanone]
[1]
Conditions	mass density [kg/m3]	vapor or sublimation pressure [kPa]	viscosity [mPa·s]
300 K	–	3.65 ± 0.6	–
303.15 K	889.8 ± 1.1	–	0.5572 ± 0.012
310.1 K	–	6.06 ± 0.6	–
313.15 K	880.3 ± 1.1	–	0.5015 ± 0.011
320.8 K	–	9.95 ± 0.61	–
323.15 K	870.6 ± 1.1	–	0.4524 ± 0.0096
333.15 K	861.2 ± 1.1	–	0.3942 ± 0.0085
337 K	–	20.07 ± 0.62	–
347.7 K	–	30.05 ± 0.64	–
355.6 K	–	40.07 ± 0.66	–
362.1 K	–	49.78 ± 0.69	–
367.6 K	–	59.85 ± 0.71	–
372.6 K	–	70.04 ± 0.74	–
376.9 K	–	80.03 ± 0.78	–
380.6 K	–	89.62 ± 0.81	–
384.8 K	–	101.3	–
385 K	–	102.18 ± 0.83	–

CC(=O)C1CCOC1=O (centres undefined) [2-acetylbutyrolactone]
[1]
Conditions	mass density [kg/m3]	vapor or sublimation pressure [kPa]	viscosity [mPa·s]
303.15 K	1185.7 ± 1.1	–	3.794 ± 0.079
313.15 K	1178.3 ± 1.1	–	3.424 ± 0.072
323.15 K	1168.9 ± 1.1	–	3.067 ± 0.064
333.15 K	1159.4 ± 1.1	–	2.719 ± 0.057
385 K	–	0.552 ± 0.6	–
395.1 K	–	1.02 ± 0.6	–
405.2 K	–	1.77 ± 0.6	–
415.3 K	–	2.92 ± 0.6	–
425.5 K	–	4.61 ± 0.6	–
434.6 K	–	6.98 ± 0.6	–
445.1 K	–	10 ± 0.61	–
464.5 K	–	20 ± 0.61	–
478.2 K	–	30.05 ± 0.62	–
489.4 K	–	40.17 ± 0.64	–
505.8 K	–	60.05 ± 0.65	–
511.5 K	–	69.06 ± 0.68	–
517.3 K	–	78.1 ± 0.68	–
523.3 K	–	88.01 ± 0.71	–
530.8 K	–	103.54 ± 0.73	–
530.9 K	–	101.3	–

CC(=O)C1CC1 [1-cyclopropyl ethanone] + CC(=O)C1CCOC1=O
[2]
Conditions	mass density [kg/m3]	viscosity [mPa·s]
303.15 K	889.8 ± 1.1	0.5572 ± 0.012
313.15 K	880.3 ± 1.1	0.5015 ± 0.011
323.15 K	870.6 ± 1.1	0.4524 ± 0.0096
333.15 K	861.2 ± 1.1	0.3942 ± 0.0085

CC(=O)CCCCl [1-chloro-4-pentanone]
[1]
Conditions	mass density [kg/m3]	vapor or sublimation pressure [kPa]	viscosity [mPa·s]
303.15 K	1051.3 ± 1.1	–	1.582 ± 0.033
313.15 K	1041.1 ± 1.1	–	1.318 ± 0.028
323.15 K	1031.2 ± 1.1	–	1.078 ± 0.023
333.15 K	1020.8 ± 1.1	–	0.9667 ± 0.02
343.2 K	–	2.91 ± 0.6	–
353.1 K	–	4.66 ± 0.6	–
363.1 K	–	7.15 ± 0.6	–
373.8 K	–	10.5 ± 0.61	–
393.8 K	–	20.79 ± 0.61	–
404.6 K	–	30.23 ± 0.63	–
413.8 K	–	41.16 ± 0.64	–
423.8 K	–	52.6 ± 0.64	–
433.5 K	–	62.27 ± 0.66	–
438.1 K	–	72.35 ± 0.71	–
443.6 K	–	81.58 ± 0.7	–
449.3 K	–	92.85 ± 0.73	–
454 K	–	103.42 ± 0.75	–
